SMILES strings stand for the structures.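 Results reflect a 48-hour exposure of cells in 96-well plates to compound at five concentrations. GI50 is the concentration that inhibits growth by half.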 The source made the active and inactive calls. Cut-off read from the data, not from the text of the source: active = GI50 up to about 1.1 µM and inactive = higher.

Test systems include SK-OV-3; ACHN; OVCAR-3; UACC-257; HCT-116; NCI-H226; MOLT-4; DU-145; CCRF-CEM; HOP-92; LOX IMVI; NCI-H522; SN12C; OVCAR-8; NCI-H23; KM12; UACC-62; RPMI-8226; U-251.
Common to all, as to assay: NCI-60 cell line screen, 48 h

`CC(=O)Oc1cc(-c2oc3cc(OC(C)=O)c(C4OC(CO)C(O)C(O)C4O)c(OC(C)=O)c3c(=O)c2O)c(OC(C)=O)cc1O` (stereo not given): the GI50 with SK-OV-3 was > 100 µM (inactive); in the assay with ACHN, > 100 µM (inactive); in the assay on OVCAR-3, > 100 µM (inactive); in the assay with UACC-257, > 100 µM (inactive); in the assay with HCT-116 it was > 100 µM (inactive); with NCI-H226, 91.8 µM (inactive). Besides, the GI50 with MOLT-4 was > 100 µM (inactive); in the assay on DU-145, > 100 µM (inactive); with CCRF-CEM it was 89.9 µM (inactive); in the assay on HOP-92 it was 26.3 µM (inactive); with LOX IMVI, > 100 µM (inactive); in the assay on NCI-H522 it was 72.6 µM (inactive). Besides, the GI50 in the assay with SN12C was > 100 µM (inactive); with OVCAR-8, > 100 µM (inactive); in the assay on NCI-H23, > 100 µM (inactive); with KM12, > 100 µM (inactive); with UACC-62, > 100 µM (inactive); with RPMI-8226 it was 56.4 µM (inactive). Besides, in the assay with U-251, the GI50 was > 100 µM (inactive).
Take `CC1(C)CN=C(Nc2ccc(F)c(Cl)c2)S1`: the GI50 in the assay with SK-OV-3, in the assay with ACHN, with OVCAR-3, in the assay on UACC-257, in the assay with HCT-116 and with NCI-H226 was > 100 µM (inactive) each time. In addition, the GI50 in the assay with MOLT-4, in the assay with DU-145, with CCRF-CEM, in the assay with HOP-92, in the assay with LOX IMVI and in the assay on NCI-H522 was > 100 µM (inactive) in each case. Besides, the GI50 in the assay on SN12C, with OVCAR-8, with NCI-H23, with KM12, in the assay on UACC-62 and in the assay with RPMI-8226 was > 100 µM (inactive) in each case. Besides, the GI50 with U-251 was > 100 µM (inactive).
In the case of `CN(Cc1nc2c(N)nc(N)nc2nc1N)c1ccc(C(=O)NC(CCC(=O)O)C(=O)O)cc1` (stereo not given), the GI50 in the assay with SK-OV-3 is > 100 µM (inactive); in the assay with ACHN, 0.041 µM (active); with OVCAR-3 it was > 100 µM (inactive); with UACC-257, 5.58 µM (inactive); in the assay on HCT-116, < 0.01 µM (active); in the assay on NCI-H226, > 100 µM (inactive). Further, the GI50 with MOLT-4 is < 0.0163 µM (active); in the assay on DU-145 it was 0.254 µM (active); in the assay with CCRF-CEM, < 0.01 µM (active); in the assay with HOP-92, > 100 µM (inactive); in the assay with LOX IMVI, < 0.01 µM (active); in the assay on NCI-H522, > 33.6 µM (inactive). Besides, the GI50 is 0.365 µM (active) in the assay with SN12C; 0.0413 µM (active) with OVCAR-8; 0.544 µM (active) in the assay on NCI-H23; > 100 µM (inactive) in the assay with KM12; 0.0603 µM (active) in the assay on UACC-62; > 75.2 µM (inactive) with RPMI-8226. In the assay on U-251, the GI50 is 0.494 µM (active).
`CC12CCC(=O)[C@@]1(C)CCCC2=O` (stereo not given in full): the GI50 in the assay on SK-OV-3, in the assay on ACHN, in the assay with UACC-257, in the assay on HCT-116, in the assay with NCI-H226 and in the assay on MOLT-4 was > 100 µM (inactive) in each case. Further, the GI50 in the assay with DU-145, in the assay with CCRF-CEM, with LOX IMVI, in the assay on NCI-H522, in the assay on SN12C and in the assay with OVCAR-8 was > 100 µM (inactive) throughout. Moreover, the GI50 with NCI-H23, in the assay with KM12, in the assay with UACC-62 and in the assay on U-251 was > 100 µM (inactive) each time.
Take `CC(=O)NNC(=S)N/C=C1/C(=O)C=C(C)OC1=O`: the GI50 in the assay with SK-OV-3, in the assay with ACHN, with OVCAR-3, with UACC-257, in the assay on HCT-116 and in the assay on NCI-H226 was > 100 µM (inactive) each time. The GI50 in the assay on MOLT-4, with DU-145, in the assay with HOP-92, with LOX IMVI, with SN12C and with OVCAR-8 was > 100 µM (inactive) throughout. The GI50 in the assay on NCI-H23, in the assay with KM12 and with U-251 was > 100 µM (inactive) in each case.
Regarding `NC1CSc2ccccc2NC1=O` (stereo not given), the GI50 with SK-OV-3, with ACHN, in the assay on OVCAR-3, in the assay on UACC-257, in the assay with HCT-116 and in the assay with NCI-H226 was > 100 µM (inactive) throughout. Moreover, the GI50 with MOLT-4, with DU-145, in the assay with CCRF-CEM, with LOX IMVI, in the assay with NCI-H522 and in the assay on SN12C was > 100 µM (inactive) in each case. Also, the GI50 in the assay on OVCAR-8, in the assay with NCI-H23, in the assay with KM12, in the assay on UACC-62, in the assay with RPMI-8226 and in the assay on U-251 was > 100 µM (inactive) each time.
In the case of `S=C(Nc1ccc2c(c1)oc1ccccc12)c1cccnc1`, the GI50 was 20.4 µM (inactive) in the assay with SK-OV-3; 29.2 µM (inactive) in the assay with ACHN; 22 µM (inactive) in the assay on OVCAR-3; 85.7 µM (inactive) with HCT-116; 24.3 µM (inactive) with NCI-H226; > 100 µM (inactive) with MOLT-4. In addition, the GI50 is > 100 µM (inactive) in the assay on DU-145; > 100 µM (inactive) in the assay with CCRF-CEM; 25.3 µM (inactive) in the assay on HOP-92; > 100 µM (inactive) with LOX IMVI; 22 µM (inactive) in the assay with NCI-H522; > 100 µM (inactive) with SN12C. For the same compound, the GI50 with OVCAR-8 was 26.2 µM (inactive); in the assay on NCI-H23, 24.5 µM (inactive); in the assay with KM12 it was > 100 µM (inactive); in the assay on UACC-62, 39.5 µM (inactive); in the assay with RPMI-8226 it was > 100 µM (inactive); with U-251, 21.6 µM (inactive).
As to `Cc1cn(CCOCCOC(=O)NC(CCCNC(N)=O)C(=O)O)c(=O)[nH]c1=O` (stereo not given), the GI50 with SK-OV-3, with ACHN, with OVCAR-3, in the assay on UACC-257, in the assay with HCT-116 and with NCI-H226 was > 100 µM (inactive) each time. Besides, the GI50 in the assay with MOLT-4, in the assay on DU-145, in the assay with CCRF-CEM, with HOP-92, in the assay on LOX IMVI and in the assay with SN12C was > 100 µM (inactive) in each case. In addition, the GI50 with OVCAR-8, with NCI-H23, in the assay with KM12, in the assay with UACC-62, in the assay on RPMI-8226 and in the assay on U-251 was > 100 µM (inactive) throughout.
On to `CC1CCC2CC1NC(=O)CCOCCC(=O)NC2(C)C` (stereo not given), for which the GI50 in the assay with SK-OV-3, in the assay on OVCAR-3, with UACC-257, in the assay on HCT-116, with MOLT-4 and in the assay on DU-145 was > 100 µM (inactive) each time. Moreover, the GI50 in the assay on CCRF-CEM, in the assay with HOP-92, in the assay with LOX IMVI, with NCI-H522, in the assay on SN12C and with OVCAR-8 was > 100 µM (inactive) in each case. Moreover, the GI50 with NCI-H23, in the assay with KM12, in the assay on UACC-62 and with U-251 was > 100 µM (inactive) in each case.
Turning to `CC(=O)OCC(OC(C)=O)C(OC(C)=O)C(OC(C)=O)C(/C=N\Nc1nc2ccccc2c(=O)[nH]1)OC(C)=O` (stereo not given), the GI50 in the assay with SK-OV-3, with ACHN, in the assay on OVCAR-3, with UACC-257, in the assay on HCT-116 and in the assay with NCI-H226 was > 100 µM (inactive) throughout. The GI50 with MOLT-4, in the assay with DU-145, in the assay with CCRF-CEM, with HOP-92, in the assay with LOX IMVI and in the assay on NCI-H522 was > 100 µM (inactive) each time. For the same compound, the GI50 in the assay on SN12C was > 100 µM (inactive); in the assay on OVCAR-8, > 100 µM (inactive); in the assay on NCI-H23, > 100 µM (inactive); in the assay with KM12, 23.6 µM (inactive); in the assay on UACC-62, > 100 µM (inactive); in the assay on RPMI-8226, > 100 µM (inactive). In addition, the GI50 with U-251 was > 100 µM (inactive).
On to `O=S(=O)(O)c1ccccc1/N=N\c1ccc(/N=N/c2c(O)ccc3ccccc23)c(S(=O)(=O)O)c1`, for which the GI50 with SK-OV-3, in the assay with ACHN, in the assay on OVCAR-3, in the assay with UACC-257, with HCT-116 and in the assay with NCI-H226 was > 100 µM (inactive) each time. For the same compound, the GI50 with MOLT-4 is > 100 µM (inactive); in the assay with DU-145 it was > 100 µM (inactive); with CCRF-CEM, 83.6 µM (inactive); with HOP-92, > 100 µM (inactive); in the assay on NCI-H522 it was > 100 µM (inactive); in the assay with SN12C it was > 100 µM (inactive). The GI50 in the assay on OVCAR-8, with NCI-H23, with KM12, in the assay on UACC-62, in the assay on RPMI-8226 and with U-251 was > 100 µM (inactive) in each case.

(Values after ChEMBL document CHEMBL1201862, “PubChem BioAssay data set” (2004).)
